Assay results published in publication PMC12090182, “Repurposing of the RIPK1-Selective Benzo[1,4]oxazepin-4-one Scaffold for the Development of a Type III LIMK1/2 Inhibitor” (ACS Chemical Biology, 2025).

Tests used:
Format in all cases: cell-based
Conditions in all cases: HEK-293T; 1 μM inhibitor, HEK293T cells
MAP3K4 = MAP3K4 (Homo sapiens, UniProt Q9Y6R4)
Summary of the method: (§1)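 Steps: FuGene HD/DNA complexation 30 min; HEK293T addition; 20 h expression; Tracer K10 plus 1 μM inhibitor; substrate; luminescence at 450 nm and 610 nm. Output is per-kinase occupancy.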

MAPK14 = MAPK14 (Homo sapiens, UniProt Q16539)
Summary of the method: as §1

PRKACB = PRKACB (Homo sapiens, UniProt P22694)
Summary of the method: as §1

AURKC = AURKC (Homo sapiens, UniProt Q9UQB9)
Summary of the method: as §1

RET = RET (Homo sapiens, UniProt P07949)
RET, sequence (P07949 29-1114): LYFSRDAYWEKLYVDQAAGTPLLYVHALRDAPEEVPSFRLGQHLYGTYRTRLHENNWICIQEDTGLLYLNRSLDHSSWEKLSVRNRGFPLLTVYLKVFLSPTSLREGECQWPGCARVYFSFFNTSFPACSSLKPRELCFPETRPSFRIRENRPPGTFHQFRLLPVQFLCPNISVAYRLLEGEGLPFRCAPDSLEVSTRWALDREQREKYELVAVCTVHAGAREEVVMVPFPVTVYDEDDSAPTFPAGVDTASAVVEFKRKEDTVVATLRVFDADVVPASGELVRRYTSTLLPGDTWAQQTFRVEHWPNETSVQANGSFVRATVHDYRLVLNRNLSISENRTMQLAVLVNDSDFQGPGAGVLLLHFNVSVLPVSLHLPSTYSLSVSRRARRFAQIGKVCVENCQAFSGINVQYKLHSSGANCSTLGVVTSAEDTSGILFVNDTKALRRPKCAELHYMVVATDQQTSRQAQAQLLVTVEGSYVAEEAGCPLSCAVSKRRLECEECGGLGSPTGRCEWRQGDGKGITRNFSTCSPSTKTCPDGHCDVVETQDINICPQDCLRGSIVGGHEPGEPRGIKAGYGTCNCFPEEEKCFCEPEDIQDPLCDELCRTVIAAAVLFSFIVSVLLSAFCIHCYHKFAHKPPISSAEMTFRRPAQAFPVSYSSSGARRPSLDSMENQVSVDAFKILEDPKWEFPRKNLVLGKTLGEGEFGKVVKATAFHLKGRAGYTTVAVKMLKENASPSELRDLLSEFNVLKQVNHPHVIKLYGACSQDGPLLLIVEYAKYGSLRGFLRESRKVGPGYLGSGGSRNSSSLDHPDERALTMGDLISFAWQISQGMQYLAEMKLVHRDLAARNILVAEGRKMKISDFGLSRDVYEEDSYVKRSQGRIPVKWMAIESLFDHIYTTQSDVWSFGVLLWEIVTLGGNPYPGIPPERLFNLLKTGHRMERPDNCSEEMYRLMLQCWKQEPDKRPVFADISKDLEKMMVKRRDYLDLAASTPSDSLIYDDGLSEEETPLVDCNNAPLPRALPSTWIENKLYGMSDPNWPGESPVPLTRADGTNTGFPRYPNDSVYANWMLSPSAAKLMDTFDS
Summary of the method: as §1

RPS6KA3 = RPS6KA3 (Homo sapiens, UniProt P51812)
Summary of the method: as §1

CDK18 = CDK18 (Homo sapiens, UniProt Q07002)
Summary of the method: as §1

WEE1 = WEE1 (Homo sapiens, UniProt P30291)
Summary of the method: as §1

MKNK2 = MKNK2 (Homo sapiens, UniProt Q9HBH9)
Summary of the method: as §1

PRKAA1 = PRKAA1 (Homo sapiens, UniProt Q13131)
Summary of the method: as §1

HIPK3 = HIPK3 (Homo sapiens, UniProt Q9H422)
HIPK3, sequence (Q9H422 whole entry): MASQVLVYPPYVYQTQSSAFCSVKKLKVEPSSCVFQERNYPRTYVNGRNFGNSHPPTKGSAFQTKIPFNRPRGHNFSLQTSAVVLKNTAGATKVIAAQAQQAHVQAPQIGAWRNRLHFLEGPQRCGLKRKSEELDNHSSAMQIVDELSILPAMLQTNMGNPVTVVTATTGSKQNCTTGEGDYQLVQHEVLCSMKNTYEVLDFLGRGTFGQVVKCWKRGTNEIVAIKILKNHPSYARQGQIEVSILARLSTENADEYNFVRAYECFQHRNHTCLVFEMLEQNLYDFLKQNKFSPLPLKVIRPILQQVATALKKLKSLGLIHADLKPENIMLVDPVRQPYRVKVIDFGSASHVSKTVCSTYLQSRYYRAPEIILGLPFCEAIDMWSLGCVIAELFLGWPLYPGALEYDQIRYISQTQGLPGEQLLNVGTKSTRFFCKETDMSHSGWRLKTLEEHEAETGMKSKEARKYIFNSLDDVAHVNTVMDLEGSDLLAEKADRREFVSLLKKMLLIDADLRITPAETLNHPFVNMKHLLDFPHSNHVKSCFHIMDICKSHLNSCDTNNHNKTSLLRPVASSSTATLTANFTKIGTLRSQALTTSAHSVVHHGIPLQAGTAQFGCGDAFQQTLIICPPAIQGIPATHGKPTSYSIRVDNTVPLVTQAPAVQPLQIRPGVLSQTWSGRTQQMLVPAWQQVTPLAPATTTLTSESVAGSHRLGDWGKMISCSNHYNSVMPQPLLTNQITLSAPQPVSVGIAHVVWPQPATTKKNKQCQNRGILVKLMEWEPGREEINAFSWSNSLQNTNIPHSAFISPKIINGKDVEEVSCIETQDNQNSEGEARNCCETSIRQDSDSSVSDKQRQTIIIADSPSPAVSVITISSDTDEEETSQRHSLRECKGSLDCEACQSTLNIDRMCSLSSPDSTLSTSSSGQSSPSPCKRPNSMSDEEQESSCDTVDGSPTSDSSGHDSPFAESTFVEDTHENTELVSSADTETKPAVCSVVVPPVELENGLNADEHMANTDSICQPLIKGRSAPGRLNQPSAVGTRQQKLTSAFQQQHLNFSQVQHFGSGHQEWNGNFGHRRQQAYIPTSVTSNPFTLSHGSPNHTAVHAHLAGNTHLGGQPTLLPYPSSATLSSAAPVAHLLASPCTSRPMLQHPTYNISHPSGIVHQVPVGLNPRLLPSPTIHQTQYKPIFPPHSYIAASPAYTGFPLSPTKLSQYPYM
Summary of the method: as §1

STK35 = STK35 (Homo sapiens, UniProt Q8TDR2)
Summary of the method: as §1

CSNK1D = CSNK1D (Homo sapiens, UniProt P48730)
Summary of the method: as §1

CSNK2A2 = CSNK2A2 (Homo sapiens, UniProt P19784)
Summary of the method: as §1

CDKL2 = CDKL2 (Homo sapiens, UniProt Q92772)
Summary of the method: as §1

TXK = TXK (Homo sapiens, UniProt P42681)
Summary of the method: as §1

FGFR3 = FGFR3 (Homo sapiens, UniProt P22607)
Summary of the method: as §1

MAPK11 = MAPK11 (Homo sapiens, UniProt Q15759)
Summary of the method: as §1

AURKB = AURKB (Homo sapiens, UniProt Q96GD4)
AURKB, sequence (Q96GD4 whole entry): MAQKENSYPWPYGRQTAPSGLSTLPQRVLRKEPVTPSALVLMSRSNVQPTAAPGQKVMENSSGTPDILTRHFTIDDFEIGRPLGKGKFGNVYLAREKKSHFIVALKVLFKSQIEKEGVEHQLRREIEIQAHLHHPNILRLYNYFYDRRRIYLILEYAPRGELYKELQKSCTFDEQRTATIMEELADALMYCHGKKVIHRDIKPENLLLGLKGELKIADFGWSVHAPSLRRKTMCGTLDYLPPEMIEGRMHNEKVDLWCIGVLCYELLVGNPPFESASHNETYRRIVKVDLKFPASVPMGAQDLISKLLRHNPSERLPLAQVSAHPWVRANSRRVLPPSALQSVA
Summary of the method: as §1

EPHA1 = EPHA1 (Homo sapiens, UniProt P21709)
Summary of the method: as §1

ERN2 = ERN2 (Homo sapiens, UniProt Q76MJ5)
Summary of the method: as §1

TBK1 = TBK1 (Homo sapiens, UniProt Q9UHD2)
Summary of the method: as §1

DYRK1B = DYRK1B (Homo sapiens, UniProt Q9Y463)
Summary of the method: as §1

TNK2(iso1) = TNK2(iso1) (Homo sapiens, UniProt Q07912)
Summary of the method: as §1

LRRK2 = LRRK2 (Homo sapiens, UniProt Q5S007)
Summary of the method: as §1

INSR = INSR (Homo sapiens, UniProt P06213)
Summary of the method: as §1

RPS6KA4 = RPS6KA4 (Homo sapiens, UniProt O75676)
Summary of the method: as §1

FLT3 = FLT3 (Homo sapiens, UniProt P36888)
Summary of the method: as §1

MAP3K10 = MAP3K10 (Homo sapiens, UniProt Q02779)
MAP3K10, sequence (Q02779 whole entry): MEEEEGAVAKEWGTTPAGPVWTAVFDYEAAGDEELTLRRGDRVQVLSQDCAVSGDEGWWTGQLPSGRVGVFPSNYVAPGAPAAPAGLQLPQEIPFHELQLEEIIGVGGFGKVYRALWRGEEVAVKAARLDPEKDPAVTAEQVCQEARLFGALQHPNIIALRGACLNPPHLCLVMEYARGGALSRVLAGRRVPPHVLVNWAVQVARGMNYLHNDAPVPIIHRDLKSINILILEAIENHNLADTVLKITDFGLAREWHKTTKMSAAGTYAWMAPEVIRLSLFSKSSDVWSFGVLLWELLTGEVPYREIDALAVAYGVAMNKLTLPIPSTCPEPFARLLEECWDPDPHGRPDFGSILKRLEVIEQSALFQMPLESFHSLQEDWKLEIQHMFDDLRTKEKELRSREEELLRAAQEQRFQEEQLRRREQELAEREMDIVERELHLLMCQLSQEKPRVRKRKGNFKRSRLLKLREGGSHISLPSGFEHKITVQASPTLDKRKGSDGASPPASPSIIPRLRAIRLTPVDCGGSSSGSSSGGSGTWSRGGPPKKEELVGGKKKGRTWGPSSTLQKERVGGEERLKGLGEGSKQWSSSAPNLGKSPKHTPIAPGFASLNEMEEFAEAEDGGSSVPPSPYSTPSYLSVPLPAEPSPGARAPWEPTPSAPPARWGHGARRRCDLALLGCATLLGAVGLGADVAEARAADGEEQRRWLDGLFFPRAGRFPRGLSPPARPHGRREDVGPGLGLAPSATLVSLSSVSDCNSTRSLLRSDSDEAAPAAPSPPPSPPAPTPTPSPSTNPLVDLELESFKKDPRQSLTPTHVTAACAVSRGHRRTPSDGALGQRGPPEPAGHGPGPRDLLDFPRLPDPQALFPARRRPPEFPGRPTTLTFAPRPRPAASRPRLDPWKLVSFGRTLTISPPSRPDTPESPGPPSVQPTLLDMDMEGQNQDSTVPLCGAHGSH
Summary of the method: as §1

HIPK2 = HIPK2 (Homo sapiens, UniProt Q9H2X6)
Summary of the method: as §1

TEC = TEC (Homo sapiens, UniProt P42680)
Summary of the method: as §1

GAK = GAK (Homo sapiens, UniProt O14976)
GAK, sequence (O14976 whole entry): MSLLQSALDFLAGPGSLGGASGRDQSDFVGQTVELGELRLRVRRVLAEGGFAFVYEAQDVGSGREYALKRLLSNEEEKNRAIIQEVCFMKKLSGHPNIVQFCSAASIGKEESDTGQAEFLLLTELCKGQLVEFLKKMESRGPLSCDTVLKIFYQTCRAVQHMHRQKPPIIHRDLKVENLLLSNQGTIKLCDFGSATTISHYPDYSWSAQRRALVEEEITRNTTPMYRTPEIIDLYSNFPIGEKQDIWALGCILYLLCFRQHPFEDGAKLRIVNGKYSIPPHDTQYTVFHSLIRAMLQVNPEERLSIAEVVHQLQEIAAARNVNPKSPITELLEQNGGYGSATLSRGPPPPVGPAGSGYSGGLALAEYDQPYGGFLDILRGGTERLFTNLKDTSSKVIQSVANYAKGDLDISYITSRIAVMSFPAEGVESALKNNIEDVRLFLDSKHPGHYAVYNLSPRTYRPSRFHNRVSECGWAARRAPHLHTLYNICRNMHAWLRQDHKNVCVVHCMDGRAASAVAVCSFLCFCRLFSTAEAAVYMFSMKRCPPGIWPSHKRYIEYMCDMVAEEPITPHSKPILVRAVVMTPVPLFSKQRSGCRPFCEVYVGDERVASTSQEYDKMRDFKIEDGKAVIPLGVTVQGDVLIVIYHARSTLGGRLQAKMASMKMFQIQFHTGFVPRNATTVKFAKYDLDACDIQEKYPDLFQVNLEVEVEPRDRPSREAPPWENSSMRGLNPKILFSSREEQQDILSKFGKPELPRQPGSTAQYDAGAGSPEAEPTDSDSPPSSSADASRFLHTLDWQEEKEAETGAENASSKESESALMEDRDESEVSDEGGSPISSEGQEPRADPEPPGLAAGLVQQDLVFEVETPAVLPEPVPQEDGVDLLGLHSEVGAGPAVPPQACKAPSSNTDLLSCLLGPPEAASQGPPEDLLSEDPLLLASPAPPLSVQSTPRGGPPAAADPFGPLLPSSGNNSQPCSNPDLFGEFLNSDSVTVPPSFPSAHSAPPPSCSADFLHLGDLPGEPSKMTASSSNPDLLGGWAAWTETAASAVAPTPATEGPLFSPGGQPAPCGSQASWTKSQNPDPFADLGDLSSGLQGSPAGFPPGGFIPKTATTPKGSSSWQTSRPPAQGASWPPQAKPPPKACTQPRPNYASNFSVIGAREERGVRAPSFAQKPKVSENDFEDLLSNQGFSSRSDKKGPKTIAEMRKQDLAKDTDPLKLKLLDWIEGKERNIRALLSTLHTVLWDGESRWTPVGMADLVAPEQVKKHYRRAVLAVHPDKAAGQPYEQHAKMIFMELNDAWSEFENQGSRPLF
Summary of the method: as §1

STK32B = STK32B (Homo sapiens, UniProt Q9NY57)
Summary of the method: as §1

IKBKE = IKBKE (Homo sapiens, UniProt Q14164)
Summary of the method: as §1

IRAK4 = IRAK4 (Homo sapiens, UniProt Q9NWZ3)
Summary of the method: as §1

PHKG1 = PHKG1 (Homo sapiens, UniProt Q16816)
Summary of the method: as §1

With `CN1C(=O)[C@@H](N2CCc3c(nn(Cc4ccccc4)c3C(N)=O)C2=O)COc2cc(Cl)ccc21` [Compound 10, (S)-2-benzyl-6-(8-chloro-5-methyl-4-oxo-2,3,4,5-tetrahydrobenzo[b][1,4]oxazepin-3-yl)-7-oxo-4,5,6,7-tetrahydro-2H-pyrazolo[3,4-c]pyridine-3-carboxamide] as the compound, how does the receptor occupancy at 1 µM (MAP3K4) read?
Its receptor occupancy at 1 µM is 5.69%.

What about the receptor occupancy at 1 µM (MAPK14) of the same compound?
Its receptor occupancy at 1 µM is 4.38%.

And the receptor occupancy at 1 µM (PRKACB)?
Its receptor occupancy at 1 µM is 0.396%.

And the receptor occupancy at 1 µM (AURKC)?
The receptor occupancy at 1 µM was 5.08%.

And the receptor occupancy at 1 µM (RET)?
Its receptor occupancy at 1 µM is -7.79%.

What about the receptor occupancy at 1 µM (RPS6KA3) of the same compound?
Its receptor occupancy at 1 µM is -0.166%.

What about the receptor occupancy at 1 µM (CDK18) of the same compound?
The receptor occupancy at 1 µM was -5.62%.

And the receptor occupancy at 1 µM (WEE1)?
The receptor occupancy at 1 µM was -7.33%.

And the receptor occupancy at 1 µM (MKNK2)?
The receptor occupancy at 1 µM was 2.69%.

What about the receptor occupancy at 1 µM (PRKAA1) of the same compound?
The receptor occupancy at 1 µM was -3.79%.

And the receptor occupancy at 1 µM (HIPK3)?
The receptor occupancy at 1 µM was 11.8%.

What about the receptor occupancy at 1 µM (STK35) of the same compound?
Its receptor occupancy at 1 µM is 1.56%.

And the receptor occupancy at 1 µM (CSNK1D)?
The receptor occupancy at 1 µM was 0.69%.

And the receptor occupancy at 1 µM (CSNK2A2)?
The receptor occupancy at 1 µM was 1.08%.

And the receptor occupancy at 1 µM (CDKL2)?
Its receptor occupancy at 1 µM is -3.58%.

What about the receptor occupancy at 1 µM (TXK) of the same compound?
The receptor occupancy at 1 µM was 4.81%.

What about the receptor occupancy at 1 µM (FGFR3) of the same compound?
The receptor occupancy at 1 µM was 22.5%.

What about the receptor occupancy at 1 µM (MAPK11) of the same compound?
The receptor occupancy at 1 µM was -1.99%.

And the receptor occupancy at 1 µM (AURKB)?
Its receptor occupancy at 1 µM is -2.1%.

And the receptor occupancy at 1 µM (EPHA1)?
Its receptor occupancy at 1 µM is 2.07%.

What about the receptor occupancy at 1 µM (ERN2) of the same compound?
Its receptor occupancy at 1 µM is -5.4%.

And the receptor occupancy at 1 µM (TBK1)?
Its receptor occupancy at 1 µM is 2.77%.

And the receptor occupancy at 1 µM (DYRK1B)?
Its receptor occupancy at 1 µM is -4.33%.

What about the receptor occupancy at 1 µM (TNK2(iso1)) of the same compound?
The receptor occupancy at 1 µM was 4.21%.

What about the receptor occupancy at 1 µM (LRRK2) of the same compound?
The receptor occupancy at 1 µM was 7.3%.

And the receptor occupancy at 1 µM (INSR)?
Its receptor occupancy at 1 µM is 4.94%.

What about the receptor occupancy at 1 µM (RPS6KA4) of the same compound?
The receptor occupancy at 1 µM was 7.5%.

And the receptor occupancy at 1 µM (FLT3)?
The receptor occupancy at 1 µM was -3.18%.

And the receptor occupancy at 1 µM (MAP3K10)?
Its receptor occupancy at 1 µM is 3.06%.

And the receptor occupancy at 1 µM (HIPK2)?
The receptor occupancy at 1 µM was 16%.

And the receptor occupancy at 1 µM (TEC)?
Its receptor occupancy at 1 µM is -0.614%.

And the receptor occupancy at 1 µM (GAK)?
Its receptor occupancy at 1 µM is 0.954%.

And the receptor occupancy at 1 µM (STK32B)?
Its receptor occupancy at 1 µM is -4.21%.

What about the receptor occupancy at 1 µM (IKBKE) of the same compound?
Its receptor occupancy at 1 µM is 6.88%.

What about the receptor occupancy at 1 µM (IRAK4) of the same compound?
The receptor occupancy at 1 µM was -8.73%.

What about the receptor occupancy at 1 µM (PHKG1) of the same compound?
Its receptor occupancy at 1 µM is -0.896%.
